What was measured:
Format in all cases: cell-based
[1] = system: HN5 tumor cells; test: Method C: Cell Growth Inhibition Assay (CellTiter-Glo), HN5; conditions: Homo sapiens, 72 h, 3 days, 4-parameter fit
Outline: (§1)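 Cells plated at 500 cells/well, dosed next day with 10-point 1:3 dilution series (0.2% final DMSO) and grown 3 days at 37 °C, 5% CO2. CellTiter-Glo luminescence (total ATP) served as cell-number surrogate; inhibition relative to DMSO controls, IC50 interpolated by 4-parameter fit.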

[2] = system: BT474 tumor cells; test: Method C: Cell Growth Inhibition Assay (CellTiter-Glo), BT474; conditions: Homo sapiens, BT-474, 72 h, 3 days, 4-parameter fit
[3] = system: SK-MEL-28 tumor cells; test: Method C: Cell Growth Inhibition Assay (CellTiter-Glo), SK-MEL-28; conditions: Homo sapiens, SK-MEL-28, 72 h, 3 days, 4-parameter fit
Outline: as §1

IC50 [1]	IC50 [2]	IC50 [3]	SMILES
< 100 nM	< 100 nM	–	COc1cc(Nc2nccc(-c3sc(N)nc3-c3cccc(NC(=O)c4c(F)cccc4F)c3)n2)cc(OC)c1OC [Example 16, N-[3-(2-Amino-5-{2-[(3,4,5-trimethoxyphenyl)amino]pyrimidiN-4-yl}-1,3-thiazol-4-yl)phenyl]-2,6-difluorobenzamide]
–	100 to 1000 nM	> 1000 nM	COc1ccc(Nc2nccc(-c3sc(N)nc3-c3cccc(NC(=O)c4c(F)cccc4F)c3)n2)cc1N1CCNCC1 [Example 18, N-[3-(2-Amino-5-{2-[(4-methoxy-3-piperaziN-1-ylphenyl)amino]pyrimidiN-4-yl}-1,3-thiazol-4-yl)phenyl]-2,6-difluorobenzamide]
> 1000 nM	> 1000 nM	–	Cc1cc(-c2sc(N)nc2-c2cccc(NC(=O)c3c(F)cccc3F)c2)nc(Nc2cccc(F)c2)n1 [Example 48, N-[3-(2-Amino-5-{2-[(3-fluorophenyl)amino]-6-methyl-4-pyrimidinyl}-1,3-thiazol-4-yl)phenyl]-2,6-difluorobenzamide]
100 to 1000 nM	100 to 1000 nM	> 1000 nM	CCNc1nc(-c2cccc(NC(=O)C3CC3)c2)c(-c2ccnc(Nc3ccc(OCCN4CCCC4)c(Cl)c3)n2)s1 [Example 63, N-{3-[5-{2-[(3-Chloro-4-{[2-(1-pyrrolidinyl)ethyl]oxy}phenyl)amino]-4-pyrimidinyl}-2-(ethylamino)-1,3-thiazol-4-yl]phenyl}cyclopropanecarboxamide]
100 to 1000 nM	100 to 1000 nM	> 1000 nM	Nc1nc(-c2cccc(C(=O)Nc3c(F)cccc3F)c2)c(-c2ccnc(Nc3cccc(CN4CCCC4)c3)n2)s1 [Example 77, 3-[2-Amino-5-(2-{[3-(1-pyrrolidinylmethyl)phenyl]amino}-4-pyrimidinyl)-1,3-thiazol-4-yl]-N-(2,6-difluorophenyl)benzamide]
< 100 nM	< 100 nM	> 1000 nM	Cc1nc(-c2cccc(NC(=O)c3c(F)cccc3F)c2)c(-c2ccnc(Nc3ccc(OCCN(C)C)c(Cl)c3)n2)s1 [Example 103, N-[3-(5-{2-[(3-Chloro-4-{[2-(dimethylamino)ethyl]oxy}phenyl)amino]-4-pyrimidinyl}-2-methyl-1,3-thiazol-4-yl)phenyl]-2,6-difluorobenzamide]
–	> 1000 nM	> 1000 nM	Cc1nc(-c2cccc(NC(=O)c3c(F)cccc3F)c2)c(-c2ccnc(Nc3ccc(OC4CCN(C(=O)OCc5ccccc5)CC4)c(F)c3)n2)s1 [Example 106]
100 to 1000 nM	100 to 1000 nM	> 1000 nM	CCc1nc(-c2cccc(NC(=O)c3c(F)cccc3F)c2)c(-c2ccnc(Nc3cccc(CN4CCCC4)c3)n2)s1 [Example 115, N-{3-[2-Ethyl-5-(2-{[3-(1-pyrrolidinylmethyl)phenyl]amino}-4-pyrimidinyl)-1,3-thiazol-4-yl]phenyl}-2,6-difluorobenzamide]
100 to 1000 nM	–	> 1000 nM	Cc1nc(-c2cccc(NC(=O)c3cc(F)ccc3F)c2)c(-c2ccnc(Nc3ccc(OCCN(C)C)c(Cl)c3)n2)o1 [Example 142]
